Values of other authors in patent publication US20240180159A1, “NEW OIL SUSPENSION CONCENTRATE COMPOSITION” (SYNGENTA CROP PROTECTION AG, priority 2021, published 2024).

Conditions: basic pH 8-14 conditions

For `CN1COCN(Cc2cnc(Cl)s2)/C1=N\[N+](=O)[O-]` [thiamethoxam], the susceptibility to hydrolysis is listed as “susceptible to hydrolysis”.
